One experiment concerns the target human KHK-C (Homo sapiens (Human), UniProt P50053). As to the kind of experiment: KHK Biochemical Assay (IC50), ADP-Glo, KHK-C. The settings on record: average of at least two separate assays. The method, boiled down:
(§1)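 ADP-Glo luminescence measured ADP made over a 4 h room-temperature reaction of ATP plus fructose, started after 30 min compound–enzyme pre-incubation. Buffer: 50 mM Hepes pH 7.4, 140 mM KCl, 5 mM MgCl2, 0.01% Triton-X. Enzyme was His-tagged, BL21 (DE3)-expressed, Ni-NTA-purified; compounds in 1:3 DMSO dilution series.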

A further experiment relates to HepG2 cells. The experiment in a line: F1P Cell-Based Assay (EC50), 13C6-fructose-1-phosphate in HepG2 cells (cell culture medium or 50% human plasma).
The target in experiment [1] is KHK-C expressed in NRK-52E cells (Homo sapiens (Human), UniProt P50053). The experiment in a line: KHK-C Cell-based Assay (EC50), NRK CTG, fructose-mediated ATP-depletion.
Sequence of KHK-C expressed in NRK-52E cells (P50053 whole entry): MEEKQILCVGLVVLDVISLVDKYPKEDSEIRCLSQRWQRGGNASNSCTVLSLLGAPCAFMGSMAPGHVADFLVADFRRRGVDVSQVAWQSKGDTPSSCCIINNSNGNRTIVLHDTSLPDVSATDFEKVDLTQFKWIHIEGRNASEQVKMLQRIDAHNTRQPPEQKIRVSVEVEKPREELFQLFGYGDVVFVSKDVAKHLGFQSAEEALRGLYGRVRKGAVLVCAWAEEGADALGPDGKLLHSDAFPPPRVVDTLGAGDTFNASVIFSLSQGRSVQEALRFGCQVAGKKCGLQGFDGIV
The next experiment deals with human KHK-A (Homo sapiens (Human), UniProt P50053). As to the kind of experiment: KHK Biochemical Assay (IC50), ADP-Glo, KHK-A. Conditions: ADP-Glo; average of at least two separate assays. In a few lines: as §1
Sequence of human KHK-A (P50053 other isoform, or with tags, fused parts or gaps): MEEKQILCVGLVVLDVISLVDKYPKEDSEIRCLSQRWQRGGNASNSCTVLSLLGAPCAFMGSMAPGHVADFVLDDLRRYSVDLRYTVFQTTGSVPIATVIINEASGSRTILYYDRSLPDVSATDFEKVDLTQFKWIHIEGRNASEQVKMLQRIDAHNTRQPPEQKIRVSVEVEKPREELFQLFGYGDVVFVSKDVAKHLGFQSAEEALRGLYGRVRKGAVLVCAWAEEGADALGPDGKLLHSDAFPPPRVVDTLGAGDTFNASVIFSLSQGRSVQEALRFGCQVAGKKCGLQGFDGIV
Where [2] appears, read: Homo sapiens, HepG2, HepG2 cells, 50% human plasma, read-out: F1P 50% HP EC50.
Where [3] appears, read: Homo sapiens, HepG2, read-out: F1P 10% FBS EC50, HepG2 cells, cell culture medium (10% FBS).
Where [4] appears, read: read-out: NRK CTG EC50, NRK-52E cells, fructose-mediated ATP-depletion, Cell-Titer Glo.

Where two headings read alike, the source gives them in different places.

Sequence of human KHK-C (P50053 whole entry): as the sequence (P50053 whole entry) above

As for `C[C@H]1[C@H](O)CN1c1nc(-c2cccc([S@](C)(=N)=O)c2)c2c(n1)C(F)(F)CC2` (single isomer, unassigned) [Example 493], the IC50 at human KHK-C is 0.0117 µM. The figures for the concentration for a half-maximal effect (EC50) (in the experiment on HepG2 cells (setting [2]); in the experiment with HepG2 cells (setting [3]); in experiment [1]) were 0.0419 µM, 0.0324 µM and 0.0527 µM, respectively.

Take `C[C@H]1[C@H](O)CN1c1nc(-c2ccc3c(c2)C(C)(C)C[C@@H]3NS(C)(=O)=O)c2c(n1)C(F)(F)CC2` (single isomer, unassigned) [Example 632]: the midpoint of inhibition at human KHK-C, the IC50, lay at 0.0005 µM. For the same compound, the EC50 with HepG2 cells (setting [2]) is over 0.5 µM; in the experiment on HepG2 cells (setting [3]) it was 0.0102 µM; in experiment [1], 0.0103 µM.

On human KHK-C (ADP-Glo), `C[C@H]1[C@H](O)CN1c1nc(-c2ccc3c(c2)[S@@](=N)(=O)CCO3)c2c(n1)C(F)(F)CC2` (single isomer, unassigned) [Example 821] came in with a 50% inhibitory concentration (IC50) of 0.005 µM. Moreover, the EC50 with HepG2 cells (HepG2 cells, 50% human plasma, read-out: F1P 50% HP EC50) was 0.0754 µM; in the experiment on HepG2 cells (read-out: F1P 10% FBS EC50, HepG2 cells, cell culture medium (10% FBS)), 0.02 µM; in experiment [1] (read-out: NRK CTG EC50, NRK-52E cells, Cell-Titer Glo, 25 mM fructose, 48 hours), 0.0422 µM.

On human KHK-C (ADP-Glo), `C[C@H]1CCN1c1nc(-c2ccc3c(c2)OCCNC3=O)c2c(n1)C(F)(F)CC2` [Example 165, (S)-8-(7,7-difluoro-2-(2-methylazetidin-1-yl)-6,7-dihydro-5H-cyclopenta[d]pyrimidin-4-yl)-3,4-dihydrobenzo[f][1,4]oxazepin-5(2H)-one] came in with an IC50 of 0.0008 µM. The EC50 is 0.049 µM in the experiment with HepG2 cells (setting [2]), 0.0097 µM with HepG2 cells (setting [3]) and 0.0023 µM in experiment [1].

Compound `C[C@H]1CCN1c1nc2c(c(-c3ccc(C4(O)CS(=O)(=O)C4)cc3)n1)CCC2` [Example 451, (S)-3-hydroxy-3-(4-(2-(2-methylazetidin-1-yl)-6,7-dihydro-5H-cyclopenta[d]pyrimidin-4-yl)phenyl)thietane 1,1-dioxide] came in with an IC50 on human KHK-C of 0.0141 µM. The results for the 50% effective concentration (EC50) (in the experiment with HepG2 cells (setting [2]); in the experiment with HepG2 cells (setting [3]); in experiment [1]) were 0.333 µM, 0.0776 µM and 0.0087 µM, respectively.

Consider `C[C@H]1CCN1c1nc(-c2ccc3c(c2)OC[C@@H]3NS(C)(=O)=O)c2c(n1)C(F)(F)CC2` [Example 528, N—((R)-6-(7,7-difluoro-2-((S)-2-methylazetidin-1-yl)-6,7-dihydro-5H-cyclopenta[d]pyrimidin-4-yl)-2,3-dihydrobenzofuran-3-yl)methanesulfonamide], for which the IC50 at human KHK-C amounted to 0.0002 µM. Also, the values for the EC50 (with HepG2 cells (setting [2]); in the experiment with HepG2 cells (setting [3]); in experiment [1]) were 0.0502 µM, 0.0025 µM and 0.0034 µM, respectively.

Turning to `C[C@H]1[C@H](O)CN1c1nc(-c2ccc3c(c2)COCC32CCC(=O)N2)c2c(n1)C(F)(F)CC2` (stereo partly shown) [Example 639], the values for the EC50 (with HepG2 cells (setting [2]); in the experiment with HepG2 cells (setting [3]); in experiment [1]) were 0.19 µM, 0.0663 µM and 0.035 µM, respectively.

On to `C[C@H]1CCN1c1nc(-c2ccc(C3(N)CC(F)(F)C3)cc2)c2c(n1)C(F)(F)CC2` [Example 648, 1-[4-[7,7-difluoro-2-[(2S)-2-methylazetidin-1-yl]-5,6-dihydrocyclopenta[d]pyrimidin-4-yl]phenyl]-3,3-difluoro-cyclobutanamine], for which the IC50 at human KHK-C amounted to 0.0012 µM. Besides, the EC50 in the experiment with HepG2 cells (setting [2]) stood at 0.0276 µM; in the experiment on HepG2 cells (setting [3]), 0.0039 µM; in experiment [1], 0.0071 µM.

On to `N#CCC(N)c1ccc(-c2nc(N3CC[C@@H]3C(F)(F)F)nc3c2CCC3(F)F)cc1` (stereo partly drawn) [Example 803, 3-amino-3-(4-(7,7-difluoro-2-((R)-2-(trifluoromethyl)azetidin-1-yl)-6,7-dihydro-5H-cyclopenta[d]pyrimidin-4-yl)phenyl)propanenitrile], for which the IC50 against human KHK-C (ADP-Glo) turned out to be 0.0005 µM; at human KHK-A, 0.0008 µM. The compound also registered a concentration giving a half-maximal response (EC50) in experiment [1] of 0.0113 µM.

On to `COc1ccc(-c2nc(N3CC[C@@H]3C(F)(F)F)nc3c2CCC3(F)F)cc1[S@@](C)(=N)=O` [Example 825, (S)-(5-(7,7-difluoro-2-((R)-2-(trifluoromethyl)azetidin-1-yl)-6,7-dihydro-5H-cyclopenta[d]pyrimidin-4-yl)-2-methoxyphenyl)(imino)(methyl)-λ^6-sulfanone], for which the EC50 amounted to 0.0023 µM in the experiment with HepG2 cells (setting [2]), 0.0009 µM with HepG2 cells (setting [3]) and 0.0056 µM in experiment [1].

Consider `C[C@@H]1N(c2nc(-c3ccc4c(c3)OC[C@@]43COC(=O)N3)c3c(n2)C(F)(F)CC3)C[C@@]1(C)O` [Example 829, (3R)-6-[7,7-difluoro-2-[(2S,3R)-3-hydroxy-2,3-dimethyl-azetidin-1-yl]-5,6-dihydrocyclopenta[d]pyrimidin-4-yl]spiro[2H-benzofuran-3,4′-oxazolidine]-2′-one], for which the figures for the IC50 against human KHK-C (ADP-Glo) and against human KHK-A were 0.001 µM and 0.0258 µM, respectively. Moreover, the EC50 in experiment [1] came to 0.0104 µM.

Take `O=C1N[C@@]2(CO1)COc1cc(-c3nc(N4CC[C@@H]4C(F)(F)F)nc4c3CCC4(F)F)ccc12` [Example 830, (R)-6-(7,7-difluoro-2-((R)-2-(trifluoromethyl)azetidin-1-yl)-6,7-dihydro-5H-cyclopenta[d]pyrimidin-4-yl)-2H-spiro[benzofuran-3,4′-oxazolidin]-2′-one]: the values for the IC50 at human KHK-C (ADP-Glo) and on human KHK-A were 0.0002 µM and 0.002 µM, respectively. In experiment [1], this compound came in with an EC50 of 0.0032 µM.

Take `O=C1N[C@@]2(CO1)COc1cc(-c3nc(N4CCC4C(F)F)nc4c3CCC4(F)F)ccc12` (stereo partly drawn) [Example 831, (3R)-6-(2-(2-(difluoromethyl)azetidin-1-yl)-7,7-difluoro-6,7-dihydro-5H-cyclopenta[d]pyrimidin-4-yl)-2H-spiro[benzofuran-3,4′-oxazolidin]-2′-one]: the IC50 is 0.0006 µM at human KHK-C (ADP-Glo) and 0.0063 µM on human KHK-A. This compound also registered an EC50 in experiment [1] of 0.0087 µM.

As to `COc1ccc(-c2nc(N3C[C@@H](O)[C@@H]3C)nc3c2CCC3(F)F)cc1S(=N)(=O)C(F)F` (stereo partly drawn) [Example 832, (2S,3R)-1-[4-[3-(difluoromethylsulfonimidoyl)-4-methoxy-phenyl]-7,7-difluoro-5,6-dihydrocyclopenta[d]pyrimidin-2-yl]-2-methyl-azetidin-3-ol], the values for the IC50 on human KHK-C (ADP-Glo) and on human KHK-A were 0.0057 µM and 0.0025 µM, respectively. Moreover, the EC50 in experiment [1] was found to be 0.0205 µM.

Take `C[C@H]1CCN1c1nc2c(c(-c3cccc(S(=N)(=O)C4CCOCC4)c3)n1)CCC2` (stereo partly drawn) [Example 880, imino(3-(2-((S)-2-methylazetidin-1-yl)-6,7-dihydro-5H-cyclopenta[d]pyrimidin-4-yl)phenyl)(tetrahydro-2H-pyran-4-yl)-λ^6-sulfanone]: the IC50 against human KHK-C (ADP-Glo) turned out to be 0.0316 µM; on human KHK-A, 0.0225 µM. Moreover, in experiment [1], the EC50 was over 0.1 µM.

As for `COc1ccc(-c2nc(N3C[C@@H](O)[C@@H]3C)nc3c2CCC3(F)F)cc1S(C)(=O)=O` [Example 882, (2S,3R)-1-(7,7-difluoro-4-(4-methoxy-3-(methylsulfonyl)phenyl)-6,7-dihydro-5H-cyclopenta[d]pyrimidin-2-yl)-2-methylazetidin-3-ol], the 50% inhibitory concentration (IC50) was 0.0051 µM against human KHK-C (ADP-Glo) and 0.0045 µM on human KHK-A. The same compound yielded an EC50 in experiment [1] of 0.0346 µM.

For “(S)-6-(2-(2-methylazetidin-1-yl)-6,7-dihydro-5H-cyclopenta[d]pyrimidin-4-yl)pyridine-2-sulfonamide [Example 223]”, the IC50 on human KHK-C (ADP-Glo) amounted to 0.0269 µM; against human KHK-A, 0.0337 µM. Also, in experiment [1] (setting [4]), the concentration giving a half-maximal response (EC50) was determined as 0.0741 µM.

Take “ethyl N-[[4-[2-[(2S)-2-methylazetidin-1-yl]-6,7-dihydro-5H-cyclopenta[d]pyrimidin-4-yl]phenyl]methyl]carbamate [Example 359]”: the IC50 at human KHK-C (ADP-Glo) worked out at 0.0897 µM; against human KHK-A, 0.0724 µM. In addition, in experiment [1] (setting [4]), the EC50 is 0.495 µM.

The IC50 is the concentration at which inhibition is half-maximal. The low end stands for greater potency in that assay, the high end for weaker potency in that assay. One may read the EC50 as the midpoint of the concentration-response curve.

Values taken from patent publication US12410160B2 (Gilead Sciences, Inc., priority 2021, dated 2025).
